According to patent publication US20190216093A1, “COMPOSITIONS AND RELATED METHODS FOR AGRICULTURE” (priority 2017, published 2019):

Columns and labels:
Escherichia coli DH5α = assay: Assessment of antibiotic penetration into corn (E. coli growth on LB plates); format: cell-based; details: kernels soaked in 2.5 or 0.25 mg/ml ciprofloxacin
Description: The kernels were soaked for 1.5 hours as described herein. After soaking, kernels were air dried and assayed to determine whether the antibiotic was able to coat and penetrate the kernel. To test this, a concentrated sample of Escherichia coli DH5α in water was spread onto 5 Luria Broth (LB) plates. […] The plates were incubated overnight at 37 degrees C. and bacterial growth and/or zone(s) of inhibition were assessed the next day.
A concentrated culture of E. coli was then spread onto LB plates and one of the coated kernels was then placed onto the center of the plate. The plates were incubated overnight, and bacterial growth was assessed the next day.
The plates were incubated overnight and the next day bacterial growth was assessed.

Sitophilus maize weevils [1] = assay: Weevil survival monitoring; format: in vivo, Sitophilus zeamais; details: S. zeamais mating pairs; 250 μg/ml or 2.5 mg/ml ciprofloxacin; 18 days
Description: Sitophilus maize weevils (Sitophilus zeamais) were reared on organic corn at 27.5° C. and 70% relative humidity. Prior to being used for weevil rearing, corn was frozen for 7 days and then tempered to 10% humidity with sterile water. […] For treatments, the appropriate amount of stock solution was diluted in sterile water.
Weevil survival was monitored daily for 18 days, after which DNA was extracted from the remaining weevils in each group. Briefly, the weevil body was surface sterilized by dipping the weevil into a 6% bleach solution for approximately 5 seconds. […] DNA concentration was measured using a nanodrop nucleic acid quantification, and SPE and weevil DNA copy numbers were measured by qPCR. […] The primers used for weevil (β-actin) were SACT144_FOR ([…]; SEQ ID NO: 240) and SACT314_REV ([…]; SEQ ID NO: 241) (Login et al., 2011). qPCR was performed using a qPCR amplification ramp of 1.6 degrees C./s and the following conditions: 1) 95° C. for 10 minutes, 2) 95° C. for 15 seconds, 3) 57° C. for 30 seconds, 4) repeat steps 2-3 40×, 5) 95° C. for 15 seconds, 6) 55° C. for 1 minute, 7) ramp change to 0.15 degrees C./s, 8) 95° C. for 1 second. qPCR data was analyzed using analytic (Thermo Fisher Scientific, QuantStudio Design and Analysis) software.

Sitophilus maize weevils [2] = assay: Weevil F1 offspring development (dissection of corn kernels); format: in vivo, Sitophilus zeamais; details: for offspring in the larval form: after 25 days; for number of offspring found in dissected corn kernels: after 25 days (water 12)
Sitophilus maize weevils [3] = assay: Weevil offspring emergence (fecundity); details: 2.5 mg/ml ciprofloxacin; till day 43

O=C(O)c1cn(C2CC2)c2cc(N3CCNCC3)c(F)cc2c1=O [ciprofloxacin]
bacterial growth on plate with entire soaked corn kernel (Escherichia coli DH5α): no bacteria grew on plates with entire corn kernels | weevil survival (Sitophilus maize weevils [1]): all weevils remained alive for the course of the experiment | F1 weevil development (Sitophilus maize weevils [2]; 250 ug/ml and 2.5 mg/ml ciprofloxacin): showed a delay in development compared to control treated weevils | offspring in the larval form (Sitophilus maize weevils [2]; 250 ug/ml ciprofloxacin): 38% | number of offspring found in dissected corn kernels (Sitophilus maize weevils [2]; 250 ug/ml ciprofloxacin): 13 offspring | offspring in the larval form (Sitophilus maize weevils [2]; 2.5 mg/ml ciprofloxacin): 65% | number of offspring found in dissected corn kernels (Sitophilus maize weevils [2]; 2.5 mg/ml ciprofloxacin): 20 offspring | emerged F1 offspring (Sitophilus maize weevils [3]): much less offspring that emerged
